Experimental data published in paper PMC7412250, “Novel Chrysin-De-Allyl PAC-1 Hybrid Analogues as Anticancer Compounds: Design, Synthesis, and Biological Evaluation” (Molecules, 2020).

Experiments:
BT-20 = test: MTT cytotoxicity assay, BT-20; assay type: cell-based; settings: Homo sapiens, mean ± SEM of three independent experiments in triplicate, read-out: IC50 Breast Cancer BT-20
Protocol: (§1) A panel of cancer cell lines, including breast (MDA-MB-231, BT20), brain (U251), and colon (HCT116), as well as a normal cell line (human mammary epithelial cells: HMECs), were grown as adherent monolayers in flasks with Dulbecco’s Modified Eagle Medium (DMEM), supplemented with 10% fetal bovine serum (FBS) and 1% penicillin and streptomycin in a humidified incubator with 5% CO2 at 37 °C.
(§2) The (3-(4,5-dimethylthiazol-2-yl)-2,5-diphenyltetrazolium bromide) (MTT) assay was used to determine the cytotoxicity of the 15 chrysin derivatives in the above-mentioned cell lines. Briefly, cells were harvested with 0.05% trypsin, 2.21 mM ethylenediaminetetraacetic acid (EDTA), 1× from Corning (Corning, NY, USA), and suspended at a final density of 5 × 10^3 cells/well. Cells were seeded (180 μL/well) into 96-well plates. Initially, four different concentrations of each compound were added to find the compounds with the greatest antiproliferative efficacy in the MDA-MB-231 cell line (0, 1, 10, and 100 μM). Subsequently, […] different concentrations […] of each compound were added to the remaining cell lines mentioned above. After 68 h of incubation, 20 μL of the MTT solution (4 mg/mL) were added to each well, and the plates were incubated for 4 h. This allowed viable cells to biotransform the yellow-colored MTT into dark-blue formazan crystals. Subsequently, the medium was discarded, and 150 μL of DMSO were added to each well to dissolve the formazan crystals. The absorbance was determined at 590 nm using a DTX 880 multimode detector (Beckman Coulter life sciences, IN, USA). The IC50 ± SD concentrations were calculated from three experiments performed in triplicate/duplicate. The IC50 values were calculated from the cell survival percentages obtained for each compound tested at different concentrations. Similarly, the cytotoxicity of the test compounds was compared to the normal cell line (HMEC).

U-251 = test: MTT cytotoxicity assay, U-251; assay type: cell-based; settings: Homo sapiens, mean ± SEM of three independent experiments in triplicate, read-out: IC50 Brain Cancer U-251
Protocol: as §1, §2

[1] = test system: HMEC (human mammary epithelial cells); test: MTT cytotoxicity assay, normal cells HMEC; assay type: cell-based; settings: mean ± SEM of three independent experiments in triplicate
Protocol: as §1, §2

MDA-MB-231 cells [2] = test: MitoTracker Red / Alexa Fluor 488 annexin V flow cytometry (mitochondrial membrane potential and apoptosis); assay type: cell-based, human; settings: for Q2 % of cells (population of cells undergoing apoptosis, quadrant II): 24 h, MitoTracker Red / annexin V, 0 µM control 14.30% (4g), 14.78% (4i); for mitochondrial membrane potential (in words): incubation for 24 h
Protocol: MitoTracker Red and Alexa Fluor 488 annexin V kits for flow cytometry (Molecular Probes Inc., Invitrogen, Eugene, OR) were used to measure the mitochondrial membrane potential and apoptosis in MDA-MB-231 cells. […] The cells were then […] using 0.05% trypsin, 2.21 mM EDTA, 1×, counted, and 4 μL of 10 μM of the MitoTracker Red working solution were added to 1 mL of the harvested cells. The cells were incubated at 37 °C with 5% CO2 for 30 min. The cells were washed once with PBS and resuspended in 100 μL of the annexin binding buffer. The cell suspensions were incubated with 5 μL of Alexa Fluor 488 annexin V for 15 min. This was followed by the addition of 400 μL of the annexin-binding buffer. Finally, flow cytometry was used to detect the fluorescence of stained cells at the following excitation/emission maxima: Alexa Fluor® 488 annexin V: 499/521 nm; MitoTracker® Red: 579/599 nm with the BD Accuri™ C6 flow cytometer from BD Biosciences (Becton-Dickinson, San Jose, CA, USA) and analyzed using FCS express 5 plus De Novo software (Glendale, CA, USA).

MDA-MB-231 cells [3] = test: Western blot of apoptotic proteins (Bak, cytochrome c, caspase-7, caspase-9, mTOR); assay type: cell-based, human; settings: for cleavage of the initiator caspase, caspase 9 / expression of cytochrome c / caspase 7 activation: compared to vehicle; for mTOR expression: 5 or 10 µM; for expression of Bak: compared to cells incubated in the absence of lead compounds
Protocol: To measure the expression of Bak, cytochrome c, caspase-7, caspase-9, and mTOR, Western blotting was performed by lysing MDA-MB-231 cells using a lysis buffer (50 mM Tris–HCl, 150 mM NaCl, 1 mM EDTA, 0.5% NP-40, 1% Triton, 0.1% SDS) containing a protease inhibitor cocktail that consisted of Aprotinin, Bestatin, E-64, Leupeptin, and Pepstatin A (Sigma-Aldrich Life Science, St. Louis, MO, USA). The bicinchoninic acid (BCA) quantification assay was used to determine the protein levels in the cell extracts (G-BIOSCIENCES, St. Louis, MO, USA). The extracted proteins were loaded onto a 10–20% tris-glycine gel. After separation, the proteins were transferred from the gel onto a polyvinylidene difluoride (PVDF) membrane. The membranes were blocked using 5% milk in Tris-buffered saline Tween 20 for 30 min and incubated overnight with primary antibodies against Bak (1:1000), cytochrome C (1:1000), caspase-3 (1:1000), caspase 7 (1:1000), caspase 9 (1:1000), mTOR (1:1000), or B-actin (1:2000) in 5% BSA (bovine serum albumin) at 4 °C. The next day, membranes were washed and incubated with horseradish peroxidase-labelled (HRP) anti-rabbit secondary antibody (1:5000 dilutions). The membrane was incubated with the antibody for an additional 1 h. Subsequently, the membranes were washed and developed by Clarity Western ECL substrate (Bio-Rad; Hercules, CA, USA). Protein was detected using a ChemiDoc Imaging System (Bio-Rad). Densitometry analyses of the blots for the detected protein were quantified using the ImageJ software. Data was calculated as ratios of protein/β-actin.

Structure (SMILES)	IC50 (BT-20)	IC50 (U-251)	IC50 [1]	Q2 % of cells (population of cells undergoing apoptosis, quadrant II) (MDA-MB-231 cells [2]; 5 µM)	Q2 % of cells (population of cells undergoing apoptosis, quadrant II) (MDA-MB-231 cells [2]; 10 µM)	mitochondrial membrane potential (in words) (MDA-MB-231 cells [2])	cleavage of the initiator caspase, caspase 9 (MDA-MB-231 cells [3]; 5 µM)	expression of cytochrome c (MDA-MB-231 cells [3]; 5 µM)	mTOR expression (MDA-MB-231 cells [3])	caspase 7 activation (MDA-MB-231 cells [3]; both concentrations (5 and 10 µM))	expression of Bak (MDA-MB-231 cells [3])	caspase 7 activation (MDA-MB-231 cells [3]; 10 µM)	cleavage of the initiator caspase, caspase 9 (MDA-MB-231 cells [3]; 10 µM)	expression of cytochrome c (MDA-MB-231 cells [3]; 10 µM)
O=C(COc1cc(O)c2c(=O)cc(-c3ccccc3)oc2c1)N/N=C/c1ccc(O)cc1O [Compound 4g, (E,Z)-N’-(2,4-Dihydroxybenzylidene)-2-((5-hydroxy-4-oxo-2-phenyl-4H-chromen-7-yl)oxy)acetohydrazide]	5.32 ± 0.72 µM	7.64 ± 0.11 µM	8 ± 1.33 µM	26.56%	58.05%	significant loss of the mitochondrial membrane potential	significant cleavage	significant increase	no significant change	activated caspase 7	increase			
O=C(COc1cc(O)c2c(=O)cc(-c3ccccc3)oc2c1)N/N=C/c1ccc(O)c(O)c1O [Compound 4i, (E,Z)-2-((5-Hydroxy-4-oxo-2-phenyl-4H-chromen-7-yl)oxy)-N’-(2,3,4-trihydroxybenzylidene)acetohydrazide]	10.4 ± 0.2 µM	25.4 ± 7.53 µM	> 100 µM	32.25%	42.56%	significant loss of the mitochondrial membrane potential			no significant change		increase	activated caspase 7	significant cleavage	significant increase
